Data published in patent publication US8383640B2, “Substituted pyrimidine ether compounds and use thereof” (priority 2007, dated 2013).
Read-outs that look alike come from different tables or passages of the source.

Legend:
[1] = system: rice blast; format: cell-based; conditions: in vitro, 24 hours incubation
[2] = system: tomato late blight; format: cell-based; conditions: in vitro, 25 mg/L, 24 hours incubation
[3] = system: corn rust; test: Fungicidal activity in vivo, corn rust; conditions: 25 mg/L, plants sprayed, scored after 1 week
Description: (§1) Determination of Fungicidal Activity In Vivo:
(§2) Compounds were disolved into acetone to receive stock solution. Deionized water containing 0.1% Tween 80 was added in the previous solution to receive 20 ml test solution. Plants are sprayed by using a turntable sprayer. After 24 hours, plants were innoculated with a conidial suspension. Plants were then transferred into a dew chamber [R.H. (relative humidity)>95%] for infection. After this treatment, plants were removed from the chamber to the greenhouse for normal maintaining, After the infection period, the plants were placed in the greenhouse. After 1 week, the plants were scored for disease control.

[4] = system: cucumber anthracnose; test: Fungicidal activity in vivo, cucumber anthracnose; conditions: plants sprayed, scored after 1 week
Description: as §1, §2

[5] = system: cucumber downy mildew; test: Fungicidal activity in vivo, cucumber downy mildew; conditions: plants sprayed, scored after 1 week
Description: as §1, §2

[6] = system: carmine spider mite eggs; test: Inhibition activity on carmine spider mite eggs; format: in vivo
[7] = system: nymph of carmine spider mite; test: Control on nymph of carmine spider mite; format: in vivo
[8] = system: mite (Tetranychus cinnabarinus); test: Acaricidal activity, airbrush spray, mite; conditions: mortality after 2-3 days
Description: Compounds were dissolved in mixed solvent (acetone: methanol=1:1), and diluted to required concentration with water containing 0.1% of Tween 80.
The second instar larvae of armyworm (Spodoptera exigua), diamond backmoth (Plutella xylostella), green peach aphids (Myzus persicae) and mite (Tetranychus cinnabarinus) were used in biological test. The method was employed either spraying by airbrush. A test solution (0.5 ml) was sprayed at the pressure of 0.7 kg/cm^2. Percent mortality was determined after 2-3 days.

[9] = system: diamond backmoth (Plutella xylostella); test: Insecticidal activity, airbrush spray, diamond backmoth; format: in vivo; conditions: 600 mg/L, mortality after 2-3 days
[10] = system: armyworm (Spodoptera exigua); test: Insecticidal activity, airbrush spray, armyworm; format: in vivo; conditions: 600 mg/L, mortality after 2-3 days
[11] = system: cucumber grey mold; test: Fungicidal activity in vitro, cucumber grey mold; format: cell-based; conditions: 2.8 mg/L, 24 hours incubation
[12] = system: wheat powdery mildew; test: Fungicidal activity in vivo, wheat powdery mildew; conditions: plants sprayed, scored after 1 week
Description: as §1, §2

| SMILES | control of rice blast ([1]; 8.3 mg/L) | control of rice blast ([1]; 25 mg/L) [%] | control of tomato late blight [2] [%] | control of cucumber anthracnose ([4]; 25 mg/L) [%] | control of cucumber anthracnose ([4]; 400 mg/L) [%] | control of cucumber downy mildew ([5]; 400 mg/L) [%] | control of mite ([8]; 600 mg/L) [%] | other results |
| --- | --- | --- | --- | --- | --- | --- | --- | --- |
| COC=C(C(=O)OC)c1ccccc1COc1cc(C)nc(Nc2ccccc2)n1 [Compound 19] | 100% | 100 | 100 | 100 | 100 | 100 |  | control of rice blast ([1]; 2.8 mg/L): 100%; control of corn rust [3]: 100%; control of cucumber downy mildew ([5]; 25 mg/L): 100% |
| COC=C(C(=O)OC)c1ccccc1COc1cc(C(F)(F)F)nc(Nc2ccccc2)n1 [Compound 20] | 100% | 100 | 100 | 100 | 100 | 100 | 100 | inhibition activity on carmine spider mite eggs ([6]; 5 mg/L): 80%; inhibition activity on carmine spider mite eggs ([6]; 10 mg/L): 100%; control on nymph of carmine spider mite ([7]; 10 mg/L): 90%; control on nymph of carmine spider mite ([7]; 20 mg/L): 100%; control of rice blast ([1]; 2.8 mg/L): 100%; control of mite ([8]; 150 mg/L): 100% |
| COC=C(C(=O)OC)c1ccccc1COc1cc(C2CC2)nc(Nc2ccccc2)n1 [Compound 25] | about 80% | 100 | 100 | 100 | 100 | 100 | 100 | control of diamond backmoth [9]: 100%; control of corn rust [3]: 100%; control of cucumber downy mildew ([5]; 25 mg/L): 100% |
| COC=C(C(=O)OC)c1ccccc1COc1nc(Nc2ccccc2)nc(C)c1C [Compound 41] | about 80% | 100 | 100 | 100 | 100 | 100 |  | control of rice blast ([1]; 2.8 mg/L): about 80%; control of corn rust [3]: 100%; control of cucumber downy mildew ([5]; 25 mg/L): 100% |
| CO/N=C(/C(=O)OC)c1ccccc1COc1cc(C(F)(F)F)nc(Nc2ccccc2)n1 [Compound 229] | about 80% |  | 100 |  |  | 100 | 100 | control of armyworm [10]: 100% |
| CON=C(C(=O)OC)c1ccccc1COc1cc(C2CC2)nc(Nc2ccccc2)n1 [Compound 232] | about 80% | 100 | 100 |  | 100 | 100 |  |  |
| COC(=O)N(OC)c1ccccc1COc1cc(C(F)(F)F)nc(Nc2ccccc2)n1 [Compound 424] |  |  | 100 |  | 100 | 100 |  | control of armyworm [10]: 100% |
| CNC(=O)N(OC)c1ccccc1COc1cc(Br)nc(Nc2ccccc2)n1 [Compound 475] | about 80% | 100 |  |  |  |  |  | control of armyworm [10]: 100% |
| COC(=O)N(OC)c1ccccc1COc1cc(C2CC2)nc(Nc2ccccc2)n1 [Compound 664] | about 80% | 100 | 100 |  |  | 100 |  |  |
| CNC(=O)C(=NOC)c1ccccc1COc1cc(C2CC2)nc(Nc2ccccc2)n1 [Compound 665] | about 80% |  |  | 100 |  |  |  | control of corn rust [3]: 100% |
| CNC(=O)N(OC)c1ccccc1COc1cc(C2CC2)nc(Nc2ccccc2)n1 [Compound 666] | 100% |  |  |  |  |  |  |  |
| CON=C(C(=O)OC)c1ccccc1COc1nc(Nc2ccccc2)nc(C)c1C [Compound 667] | 100% | 100 | 100 |  | 100 | 100 |  | control of diamond backmoth [9]: 100%; control of rice blast ([1]; 2.8 mg/L): about 80%; control of cucumber grey mold [11]: about 50% |
| COC(=O)N(OC)c1ccccc1COc1nc(Nc2ccccc2)nc(C)c1C [Compound 668] | about 80% | 100 | 100 |  | 100 | 100 |  |  |
| CNC(=O)C(=NOC)c1ccccc1COc1nc(Nc2ccccc2)nc(C)c1C [Compound 669] |  |  |  | 100 |  |  |  | control of corn rust [3]: 100% |
| CNC(=O)N(OC)c1ccccc1COc1nc(Nc2ccccc2)nc(C)c1C [Compound 670] | about 80% |  |  | 100 |  |  |  |  |
| CON=C(C(=O)OC)c1ccccc1COc1cc(C)nc(Nc2ccccc2)n1 [Compound 676] | 100% |  |  |  |  |  |  | control of rice blast ([1]; 2.8 mg/L): about 80% |
| COC(=O)N(OC)c1ccccc1COc1cc(C)nc(Nc2ccccc2)n1 [Compound 677] | 100% |  |  | 100 |  |  |  |  |
| CNC(=O)C(=NOC)c1ccccc1COc1cc(C)nc(Nc2ccccc2)n1 [Compound 678] |  |  |  | 100 |  |  |  |  |
| COC=C(C(=O)OC)c1ccccc1COc1cc(C(F)(F)F)nc(N(C)C)n1 [Compound 680] |  |  |  |  |  |  |  | control of wheat powdery mildew ([12]; 25 mg/L): 98%; control of wheat powdery mildew ([12]; 400 mg/L): 100% |
| COC=C(C(=O)OC)c1ccccc1COc1cc(C(F)(F)F)nc(NC(C)C)n1 [Compound 682] |  |  |  |  |  |  | 100 |  |
| COC=C(C(=O)OC)c1ccccc1COc1cc(C(F)(F)F)nc(Nc2cccnc2Cl)n1 [Compound 691] |  |  |  |  |  |  | 100 | control of mite ([8]; 40 mg/L): 100% |
| COC=C(C(=O)OC)c1ccccc1COc1cc(C(F)(F)F)nc(Nc2ccc(C)cc2C)n1 [Compound 693] |  |  |  |  |  |  | 100 |  |
| COC=C(C(=O)OC)c1ccccc1COc1cc(C(F)(F)F)nc(Nc2cccc(Cl)c2Cl)n1 [Compound 694] |  |  |  |  |  |  | 100 | control of mite ([8]; 40 mg/L): 100% |
| COC=C(C(=O)OC)c1ccccc1COc1cc(C(F)(F)F)nc(Nc2ccc(C)c(C)c2)n1 [Compound 697] |  |  |  |  |  |  | 100 |  |
| COC=C(C(=O)OC)c1ccccc1COc1cc(C(F)(F)F)nc(NC2CCCCC2)n1 [Compound 701] |  |  |  |  |  |  |  | control of mite ([8]; 40 mg/L): 100% |
